Reference: article PMC4467128 (Oncotarget, 2014)

Experiments:
[1] = tested on: HDAC enzyme activity in Ramos cells; experiment: Cell-based HDAC fluorescence activity assay, Ramos; details: Homo sapiens, 24 h, read-out: IC50 (HDAC enzyme activity)
Procedure: (§4) After the incubation, the lysine developer in this kit was added and the mixture was incubated for another 30 min at 37°C.

BJAB cells = experiment: MTT cell viability assay, BJAB B-cell lymphoma cells; format: cell-based; details: Homo sapiens, 24 h, mean ± SEM, read-out: IC50 (growth inhibition)
Procedure: (§1) Two fast-growing malignant B cell lymphoma (Burkitt lymphoma) cell lines and human umbilical vein endothelial cells (HUVEC) were used. Ramos and HUVEC cells were purchased from American Type Culture Collection (Manassas, VA, USA) and BJAB cells were a kind gift from Professor Ping-Ning Hsu (National Taiwan University Hospital and National Taiwan University, College of Medicine, Taipei, Taiwan). […] All cells were maintained in humidified air containing 5% CO2 at 37°C. Cell density was maintained between 1×10^5 and 1×10^6 cell/ml and passaged every 2 to 3 days.
(§2) Cell viability was assessed by MTT assay. […] After the treatment, 100 μl of 0.5 mg/ml 3-(4,5-Dimethylthiazol-2-yl)-2,5-diphenyl-tetrazolium bromide (MTT) were added to each well and incubated at 37°C to stained cells forming an insoluble blue formazan product. After 1 h incubation, 100 μl of extraction reagent (0.1M sodium acetate buffer or DMSO) were added to each well and mix thoroughly to lyse cells. The plates were then measured at 550 nm using an enzyme-linked immunosorbent assay (ELISA) reader (Packard, Meriden, CT, USA).

BJAB tumors = experiment: BJAB xenograft tumor growth model in nude mice; format: in vivo; details: po, qd, 31 days
Procedure: (§3) The mice were carefully maintained and all animal procedures were in accordance with the Institutional Animal Care and Use Committee procedures and guidelines. All animal experiments followed ethical standards, and protocols has been reviewed and approved by Animal Use and Management Committee of National Taiwan University (IACUC Approval No: 20100225).
In BJAB xenograft model, the male nude mice were injected subcutaneously with the same volume of BD Matrigel Matrix HC (BD bioscience, catalog 354248) and BJAB cells (2×10^7 cell/mouse) into the flank of each animal. […] Tumor size was measured twice weekly and calculated from V = 0.5 lw^2, where w = width (w) and l = length (l). At the end of study, tumors were carefully removed and frozen in liquid nitrogen for subsequent western analysis.

Akt = Akt (Homo sapiens, UniProt P31749); experiment: Enzyme-based Akt kinase activity assay (Kinome Diversity Screen, ELISA quantitation); format: biochemical; details: crosstide substrate
Chain of Akt (P31749 whole entry): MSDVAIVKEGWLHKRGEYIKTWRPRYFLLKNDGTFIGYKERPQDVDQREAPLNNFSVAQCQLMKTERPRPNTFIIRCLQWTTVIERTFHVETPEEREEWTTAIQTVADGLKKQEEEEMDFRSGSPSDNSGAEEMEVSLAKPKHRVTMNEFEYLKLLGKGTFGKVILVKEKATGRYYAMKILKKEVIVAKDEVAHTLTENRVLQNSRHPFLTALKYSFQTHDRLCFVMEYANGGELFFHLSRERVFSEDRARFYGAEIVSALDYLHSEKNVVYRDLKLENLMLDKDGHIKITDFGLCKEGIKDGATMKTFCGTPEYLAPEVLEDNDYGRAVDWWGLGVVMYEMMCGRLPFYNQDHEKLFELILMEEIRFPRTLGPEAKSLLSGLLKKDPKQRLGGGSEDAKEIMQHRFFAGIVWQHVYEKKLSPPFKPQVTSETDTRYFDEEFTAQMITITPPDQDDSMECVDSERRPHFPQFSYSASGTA
Procedure: In briefly, Akt activity was assayed using human recombinant insect Sf21 cells for Akt kinase source and crosstide peptide ([…], 15 μg/mL) as a substrate. Cell lysate was incubated with kinase assay buffer (50 mM HEPES pH 7.4, 10 mM MgCl2, 0.2 mM Na3VO4, and 1 mM DTT) for 60 min at 25°C, and analyzed by ELISA quantitation of Crosstide-P.

HDAC1, 2, 6, and 8 = details: range over the four isoforms; cited from earlier work
Ramos cells [2] = experiment: Ramos engraftment survival model in NOD/SCID mice; format: in vivo; details: daily oral gavage, MPT0E028 100 mg/kg, SAHA 200 mg/kg
Text: as §3
In Ramos engrafment model, human B-cell lymphoma Ramos cells were resuspended at 10^7 cells/ml in culture medium at room temperature, and 2×10^6 cells were inoculated into male NOD/SCID mice via tail vein. Treatment began 1 week after engrafment. […] Survival rate was used as end point for this study.

[3] = tested on: p-Akt (S473) in BJAB cells; experiment: Cell-based ELISA for p-Akt (S473), BJAB; details: Homo sapiens, 24 h, mean ± SEM, read-out: IC50 (Akt dephosphorylation, p-Akt S473)
Procedure: After the treatment, cells were lysed with ice-cold lysis buffer mentioned above and equivalent aliquots of protein were subjected to a PathScan phospho-Akt1 (Ser473) sandwich ELISA kit (Cell Signaling Technology) following manufacture's instruction. In briefly, whole cell lysate was first half-diluted with sample diluent and added 100 μl into the well incubating overnight at 4°C. After the reaction, wells were washed 4 times with 200 μl wash buffer and then added 100 μl of Akt1 mouse detection antibody incubating 1 h at 37°C. Washed 4 times again and then added 100 μl of anti-mouse IgG HRP-linked antibody incubating 30 min at 37°C. After incubation, washed the well once again and then added 100 μl TMB substrate for color production and finally added 100 μl STOP solution. The results were measured by spectrophotometer at wavelength 450 nm.

HDAC4 = details: cited from earlier work
Ramos cells [4] = experiment: MTT cell viability assay, Ramos B-cell lymphoma cells; format: cell-based; details: Homo sapiens, 24 h, mean ± SEM, read-out: IC50 (growth inhibition)
Procedure: as §1, §2

HUVEC cells = experiment: MTT cell viability assay, normal HUVEC cells; format: cell-based; details: Homo sapiens, 24 h, read-out: IC50 (cell viability, toxicity)
Procedure: as §1, §2

[5] = tested on: HDAC enzyme activity in BJAB cells; experiment: Cell-based HDAC fluorescence activity assay, BJAB; details: Homo sapiens, 24 h, read-out: IC50 (HDAC enzyme activity)
Procedure: as §4

[6] = Body weight of BJAB tumor bearing mice; format: in vivo; details: nude mice, 50-200 mg/kg, po, qd, 31 days
Procedure: The mice were carefully maintained and all animal procedures were in accordance with the Institutional Animal Care and Use Committee procedures and guidelines. […] Tumor size was measured twice weekly and calculated from V = 0.5 lw^2, where w = width (w) and l = length (l). At the end of study, tumors were carefully removed and frozen in liquid nitrogen for subsequent western analysis.

SMILES | IC50 [1] [µM] | IC50 (BJAB cells) [µM] | TGI (BJAB tumors; 100 mg/kg) [%] | TGI (BJAB tumors; 200 mg/kg) [%] | IC50 (Akt) [µM] | IC50 (HDAC1, 2, 6, and 8) [µM] | Survival rate compared with control group (Ramos cells [2]) | IC50 [3] [µM] | effect upon HDAC4 (HDAC4) | IC50 (Ramos cells [4]) [µM] | IC50 (HUVEC cells) [µM] | IC50 [5] [µM] | Body weight difference between groups [6]
O=C(C=Cc1ccc2c(c1)CCN2S(=O)(=O)c1ccccc1)NO [MPT0E028, 3-(1-Benzenesulfonyl-2,3-dihydro-1H-indol-5-yl)-N-hydroxy-acrylamide] | 2.88 ± 1.9 | 1.45 ± 0.5 | 20.8 | 40.4 | 5.78 | 0.0295 to 2.53 | significantly prolonged | 5.9 ± 1.6 | no effect | 0.65 ± 0.1 | > 30 | 4.54 ± 1.2 | no significant difference in body weight
O=C(CCCCCCC(=O)Nc1ccccc1)NO [SAHA, reference compound] |  |  |  | 17.9 |  |  | no significant efficacy | 32.9 ± 11.3 |  |  |  |  | 
